This is an account of results in US7705002B2, “Biaryls useful as modulators of ion channels” (Vertex Pharmaceuticals Incorporated, priority 2005, dated 2010).

Assay [1] has as its target T1, NaV1.8 (Homo sapiens, UniProt Q9Y5Y9). In words: Activity against NaV 1.8 channel (Table 4). It counts as cell-based. As for the experimental part:
Compounds of the invention are useful as antagonists of voltage-gated sodium ion channels. Antagonist properties of test compounds were assessed as follows. Cells expressing the NaV of interest were placed into microtiter plates. After an incubation period, the cells were stained with fluorescent dyes sensitive to the transmembrane potential. The test compounds were added to the microtiter plate. The cells were stimulated with either a chemical or electrical means to evoke a NaV dependent membrane potential change from unblocked channels, which was detected and measured with trans-membrane potential-sensitive dyes. Antagonists were detected as a decreased membrane potential response to the stimulus. The optical membrane potential assay utilized voltage-sensitive FRET sensors described by Gonzalez and Tsien (See, Gonzalez, J. E. and R. Y. Tsien (1995) “Voltage sensing by fluorescence resonance energy transfer in single cells” Biophys J 69(4): 1272-80, and Gonzalez, J. E. and R. Y. Tsien (1997) “Improved indicators of cell membrane potential that use fluorescence resonance energy transfer” Chem Biol 4(4): 269-77) in combination with instrumentation for measuring fluorescence changes such as the Voltage/Ion Probe Reader (VIPR®) (See, Gonzalez, J. E., K. Oades, et al. (1999) “Cell-based assays and instrumentation for screening ion-channel targets” Drug Discov Today 4(9): 431-439).
24 hours before the assay on VIPR, CHO cells endogenously expressing a NaV1.2 type voltage-gated NaV are seeded in 96-well poly-lysine coated plates at 60,000 cells per well. […] The cells are then incubated for 20-30 minutes. • 7) Once the incubation is complete, the cells are ready to be assayed on VIPR® with a sodium addback protocol. […]
Control responses are obtained by performing assays in the presence of a compound with the desired properties (positive control), such as tetracaine, and in the absence of pharmacological agents (negative control). Responses to the negative (N) and positive (P) controls are calculated as above. […]

For assay [2], the target named is T1, NaV1.8. As to conditions: read-out: TTX IC50; cited from earlier work.
The conditions of assay [3]: in vivo; cited from earlier work.

Read-outs that look alike come from different tables or passages of the source.

T1 sequence (Q9Y5Y9 whole entry, looked up): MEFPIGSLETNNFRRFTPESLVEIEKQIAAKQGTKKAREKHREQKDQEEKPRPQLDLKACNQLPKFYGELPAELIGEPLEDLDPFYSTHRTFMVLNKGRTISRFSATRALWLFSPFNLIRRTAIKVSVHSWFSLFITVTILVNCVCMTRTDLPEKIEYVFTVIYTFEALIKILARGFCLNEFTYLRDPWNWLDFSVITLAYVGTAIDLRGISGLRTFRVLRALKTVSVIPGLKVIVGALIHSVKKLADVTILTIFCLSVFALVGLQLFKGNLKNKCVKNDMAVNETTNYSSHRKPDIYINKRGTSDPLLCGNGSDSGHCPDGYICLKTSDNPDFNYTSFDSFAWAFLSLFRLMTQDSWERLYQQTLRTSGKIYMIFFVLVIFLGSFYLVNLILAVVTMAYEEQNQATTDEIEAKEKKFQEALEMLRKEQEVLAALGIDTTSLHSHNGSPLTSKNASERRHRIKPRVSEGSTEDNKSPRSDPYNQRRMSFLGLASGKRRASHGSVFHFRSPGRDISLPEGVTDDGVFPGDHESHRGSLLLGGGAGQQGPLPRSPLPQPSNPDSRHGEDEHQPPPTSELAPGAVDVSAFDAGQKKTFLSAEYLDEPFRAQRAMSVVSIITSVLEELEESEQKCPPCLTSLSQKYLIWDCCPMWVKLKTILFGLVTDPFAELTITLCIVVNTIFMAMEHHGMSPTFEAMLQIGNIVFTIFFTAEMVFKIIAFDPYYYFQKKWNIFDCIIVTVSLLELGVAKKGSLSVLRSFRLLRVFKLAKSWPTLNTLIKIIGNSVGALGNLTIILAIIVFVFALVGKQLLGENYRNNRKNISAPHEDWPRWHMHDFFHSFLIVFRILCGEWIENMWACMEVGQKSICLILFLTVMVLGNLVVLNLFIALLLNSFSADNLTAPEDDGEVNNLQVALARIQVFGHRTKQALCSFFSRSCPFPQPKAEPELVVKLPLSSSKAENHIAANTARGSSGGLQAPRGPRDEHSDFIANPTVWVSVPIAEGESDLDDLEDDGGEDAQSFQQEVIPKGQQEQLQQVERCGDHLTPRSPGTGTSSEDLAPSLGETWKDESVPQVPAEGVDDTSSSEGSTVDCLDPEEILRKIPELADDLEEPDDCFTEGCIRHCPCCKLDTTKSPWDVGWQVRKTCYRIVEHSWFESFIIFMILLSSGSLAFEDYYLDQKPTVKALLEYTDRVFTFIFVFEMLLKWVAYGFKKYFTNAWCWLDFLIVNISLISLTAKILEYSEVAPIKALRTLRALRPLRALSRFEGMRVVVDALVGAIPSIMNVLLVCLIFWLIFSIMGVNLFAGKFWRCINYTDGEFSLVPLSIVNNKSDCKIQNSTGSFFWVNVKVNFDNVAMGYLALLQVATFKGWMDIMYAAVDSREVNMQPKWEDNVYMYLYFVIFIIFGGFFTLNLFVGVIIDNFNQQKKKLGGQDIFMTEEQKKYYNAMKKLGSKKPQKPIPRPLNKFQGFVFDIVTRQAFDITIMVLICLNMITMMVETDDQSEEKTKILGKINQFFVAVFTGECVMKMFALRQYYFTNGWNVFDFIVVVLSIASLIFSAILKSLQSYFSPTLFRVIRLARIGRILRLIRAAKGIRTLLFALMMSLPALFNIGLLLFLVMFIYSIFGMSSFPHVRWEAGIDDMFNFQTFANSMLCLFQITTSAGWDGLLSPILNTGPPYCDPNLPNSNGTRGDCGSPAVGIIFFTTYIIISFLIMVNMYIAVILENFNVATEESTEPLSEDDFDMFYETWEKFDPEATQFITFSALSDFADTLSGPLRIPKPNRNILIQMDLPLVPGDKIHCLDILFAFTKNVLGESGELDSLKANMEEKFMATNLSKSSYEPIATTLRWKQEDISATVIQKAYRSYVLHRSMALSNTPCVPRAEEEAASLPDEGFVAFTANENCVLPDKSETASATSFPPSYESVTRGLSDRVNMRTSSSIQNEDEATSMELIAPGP

One may read the IC50 as the concentration that gives 50% inhibition. With `CC(C)COC(=O)N1CCN(c2cccc(-c3ccccc3O)c2)CC1` [Compound 3, 4-[3-(2-hydroxyphenyl)phenyl]piperazine-1-carboxylic acid isobutyl ester], the IC50 on NaV1.8 [1] is > 15 µM. The same measure, in the same setting: the figure for `CC(C)C[C@@H](O)C(=O)N1CCN(c2cccc(-c3ccccc3C(F)F)c2)CC1` [Compound 2, 1-[4-[3-[2-(difluoromethyl)phenyl]phenyl]piperazin-1-yl]-2-hydroxy-4-methyl-pentan-1-one] is < 10 µM.

For `CC(C)CC(O)C(=O)N1CCN(c2cccc(-c3ccccc3O)c2)CC1` (centres unmarked) [Compound 1, 2-hydroxy-1-[4-[3-(2-hydroxyphenyl)phenyl]piperazin-1-yl]-4-methyl-pentan-1-one], at NaV1.8 [1], the IC50 is > 15 µM. For `NC1=N[C@H](O)[C@H]2[C@H]3O[C@]4(O)O[C@@H]([C@@H](O)[C@@]2(N1)[C@@H]4O)[C@]3(O)CO` [TTX, tetrodotoxin], the IC50 on NaV1.8 [2] is > 50 µM.

In the case of `NCC1(CC(=O)O)CCCCC1` [Gabapentin], in assay [3], the “share of patients in which it works” value was 60%.
